# Reference: patent publication US20260183276A1, “miRNA DYSREGULATION CORRECTION AS A STRATEGY TO TREAT HUNTINGTON'S DISEASE” (The Chinese University of Hong Kong, priority 2022, published 2026)
# “Also recorded” adds a separate entry of the source.
# Legend:
# [1] = test system: TAK1-MKK4-JNK pro-apoptotic signaling in EGFPCAG78-expressing cells; assay: Western blotting of TAK1-MKK4-JNK caspase cascade, EGFPCAG78-expressing cells; format: cell-based; settings: for TAB1 expression / TAK1-triggered cell death / TAB2 expression: EGFPCAG78-transfected cells; for TAK1-triggered cell death: FIG. 9A; for EGFPCAG78-induced TAK1 functional deregulation: FIG. 9B
# Protocol: (§1) SK-N-MC cells (ATCC) were cultured in DMEM (GE Healthcare BioSciences) supplemented with 10% fetal bovine serum and 1% penicillin-streptomycin. Cells were maintained in a 37° C. humidified cell culture incubator supplemented with 5% CO2. Plasmid DNA and siRNA/synthetic miRNA transfection was performed using Lipofectamine 2000 (Thermo Fisher Scientific) and Lipofectamine RNAiMAX (Thermo Fisher Scientific), respectively.
# (§2) Proteins were extracted from SK-N-MC cells or mouse primary cortical neurons using SDS sample buffer. For protein extraction from mice, half of the brain was homogenized in protein lysis buffer (50 mM Tris-HCl, pH 7.6, 150 mM NaCl, 10% NP40, 5% sodium deoxycholate). All protein samples were boiled at 99° C. for 10 minutes, prior to Western blotting. Primary antibodies used were anti-PAPD5 (PA5-46747, 1:1,000) from Invitrogen; anti-p-TAK1 (4536, 1:1,000), anti-t-TAK1 (4505, 1:2,000), anti-p-MKK4 (9156, 1:1,000), anti-t-MKK4 (9152, 1:2,000), anti-p-MKK7 (4171, 1:1,000), anti-t-MKK7 (4172, 1:2,000), anti-p-JNK (9251, 1:2,000), anti-t-JNK (9252, 1:2,000), anti-TAB1 (3226, 1:2,000), anti-TAB2 (3745, 1:2,000), anti-cleaved caspase 3 (9664, 1:500) and anti-myc (2276, 1:2,000) from Cell Signaling Technology; antipolyQ (P1874, 1:1,000) and anti-HA (H3663, 1:2,000) from Sigma-Aldrich; anti-YY1 (ab109237, 1:2000) and anti-β-tubulin (ab6046, 1:2,000) from Abcam, and anti-GFP (JL-8, 1:4,000) from Clontech. Secondary antibodies used were goat anti-rabbit (11035-045, 1:5,000) and goat anti-mouse (115-035-062, 1:5,000) from Jackson ImmunoResearch.
# [2] = test system: EGFPCAG78-expressing SK-N-MC cells; assay: LDH cell death assay, EGFPCAG78-expressing SK-N-MC cells; format: cell-based
# Protocol: as §1
# (§3) The LDH assay on SK-N-MC cells were performed according to manufacturer's instructions (CytoTox 96 Non-Radioactive Cytotoxicity Assay Kit, Promega).
# [3] = test system: TAK1-MKK4-JNK pro-apoptotic signaling in EGFP-Htt1-550CAG89-expressing cells; assay: Western blotting of TAK1-MKK4-JNK caspase cascade, EGFP-Htt1-550CAG89-expressing SK-N-MC cells; format: cell-based
# Protocol: as §1, §2
# [4] = test system: EGFP-Htt1-550CAG89-expressing SK-N-MC cells; assay: LDH cell death assay, EGFP-Htt1-550CAG89-expressing SK-N-MC cells; format: cell-based
# Protocol: as §1, §3
# A-beta peptide toxicity = assay: A-beta1-42 peptide transgenic Drosophila model of Alzheimer's Disease; format: in vivo; settings: A-beta1-42 transgenic Drosophila
# [5] = test system: PAPD5-overexpressing cells; assay: LDH cell death assay, PAPD5-overexpressing cells; format: cell-based
# Protocol: as §1, §3
# [6] = test system: TAK1-MKK4-JNK pro-apoptotic signaling in PAPD5-overexpressing cells; assay: Western blotting of TAK1-MKK4-JNK caspase cascade, PAPD5-overexpressing cells; format: cell-based
# Protocol: as §1, §2
# PAPD5 = PAPD5 (Homo sapiens, UniProt Q8NDF8); settings: cited from earlier work
# Sequence of PAPD5 (Q8NDF8 whole entry, the tested form may be a part): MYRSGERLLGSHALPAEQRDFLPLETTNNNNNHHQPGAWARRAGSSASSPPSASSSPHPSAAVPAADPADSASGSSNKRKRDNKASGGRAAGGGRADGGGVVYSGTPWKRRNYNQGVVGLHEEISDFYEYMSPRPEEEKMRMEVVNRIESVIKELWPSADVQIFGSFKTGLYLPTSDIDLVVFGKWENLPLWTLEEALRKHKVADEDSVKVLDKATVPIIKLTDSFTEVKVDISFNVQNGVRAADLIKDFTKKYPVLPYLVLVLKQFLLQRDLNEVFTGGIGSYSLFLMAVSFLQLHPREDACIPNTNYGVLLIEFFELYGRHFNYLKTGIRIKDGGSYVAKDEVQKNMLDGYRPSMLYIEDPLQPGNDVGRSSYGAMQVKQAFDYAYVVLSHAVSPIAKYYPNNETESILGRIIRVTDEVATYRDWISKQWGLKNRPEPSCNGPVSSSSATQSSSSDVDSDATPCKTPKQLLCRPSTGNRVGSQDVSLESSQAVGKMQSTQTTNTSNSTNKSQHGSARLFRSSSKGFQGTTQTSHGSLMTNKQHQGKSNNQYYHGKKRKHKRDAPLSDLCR
# [7] = test system: HttQ93-induced retinal neurodegeneration; assay: Pseudopupil assay, HttQ93 Drosophila model of Huntington's Disease; format: in vivo; settings: 10 uM BCH001, gmr-GAL4 driver
# Protocol: Fly lines gmr-Gal4 (Ellis et al., 1993), UAS-DsRedCAG0/100 (Li et al., 2008), UAS-Htt exon1Q93 (Steffan et al., 2001), UAS-flMJDQ27/84 (Warrick et al., 2005), UASCTG60/480 (Garcia-Lopez et al., 2008) and UAS-EGFP-CGG90 (Jin et al., 2003) were described previously. The UAS-PAPD5 dsRNA line (GD19799, GD41096, and GD45261) was obtained from Vienna Drosophila RNAi Center. All flies were maintained in cornmeal culture medium and genetic crosses were set up in a 21.5° C. incubator (LMS, Sevenoaks, Kent, UK).
# 12 days-post-eclosion (dpe) adult flies were used for the pseudopupil assay as described previously (Wong et al., 2008). Each fly eye was examined using an Olympus CX31 stereomicroscope. The images of ommatidia were captured using a SPOT Insight CCD camera (Diagnostic instruments Inc., Sterling Heights, MI, USA), and all images were processed using the SPOT Advanced software (Version 5.2; Diagnostic instruments Inc., Sterling Heights, MI, USA) and Photoshop 2020 (Adobe Systems). Two hundred ommatidia collected from 20 individual fly eyes were examined for each condition and used for statistical analysis. The average number of rhabdomeres per ommatidia was presented as the indication of ommatidial integrity.
# [8] = test system: telomerase RNA component (TERC); settings: cited from earlier work
# [9] = test system: JNK phosphorylation and caspase 3 cleavage in EGFP-Htt1-550CAG89-expressing neurons; assay: Western blotting, EGFP-Htt1-550CAG89-expressing primary cortical neurons; format: cell-based, mouse
# Protocol: E16-embryos of C57BL6J wildtype mice were sacrificed to obtain the mouse primary cortical neurons as previously described (Peng et al., 2021). In brief, cortical lobes were dissected out in ice-cold PBS-glucose. Meninges were removed and cortices were digested in trypsin solution. Primary cortical neurons were cultured on poly-[…]-coated (0.05 mg/ml) glass coverslips in 24-well plates (50,000 cells per well) and maintained in a 37° C. humidified cell culture incubator supplemented with 5% CO2. Prior to transfection and drug treatment, neurons were cultured for 5 days. Mature primary neurons were transfected with DNA constructs together with Lipofectamine LTX and Plus Reagent (Thermo Fisher Scientific). Following the manufacturer's protocol, at 4 hours post-transfection culture medium was refreshed and 400 nM of BCH001 was added to the medium. Neurons were further incubated for 72 hours to allow recovery and ectopic expression. Proteins were extracted from SK-N-MC cells or mouse primary cortical neurons using SDS sample buffer. For protein extraction from mice, half of the brain was homogenized in protein lysis buffer (50 mM Tris-HCl, pH 7.6, 150 mM NaCl, 10% NP40, 5% sodium deoxycholate). All protein samples were boiled at 99° C. for 10 minutes, prior to Western blotting. […]
# [10] = test system: EGFP-Htt1-550CAG89-expressing mouse primary cortical neurons; assay: Immunocytochemistry of synaptic markers and neurites, EGFP-Htt1-550CAG89-expressing primary cortical neurons; format: cell-based; settings: 400 nM BCH001, 72 hours
# Protocol: E16-embryos of C57BL6J wildtype mice were sacrificed to obtain the mouse primary cortical neurons as previously described (Peng et al., 2021). In brief, cortical lobes were dissected out in ice-cold PBS-glucose. Meninges were removed and cortices were digested in trypsin solution. Primary cortical neurons were cultured on poly-[…]-coated (0.05 mg/ml) glass coverslips in 24-well plates (50,000 cells per well) and maintained in a 37° C. humidified cell culture incubator supplemented with 5% CO2. Prior to transfection and drug treatment, neurons were cultured for 5 days. Mature primary neurons were transfected with DNA constructs together with Lipofectamine LTX and Plus Reagent (Thermo Fisher Scientific). Following the manufacturer's protocol, at 4 hours post-transfection culture medium was refreshed and 400 nM of BCH001 was added to the medium. Neurons were further incubated for 72 hours to allow recovery and ectopic expression. Neurons were fixed with 4% paraformaldehyde for 10 minutes, followed by permeabilization (0.2% Triton X-100) for another 10 minutes and blocking (1% BSA) for 1 hour at room temperature. Primary antibody incubation was performed in 1% BSA overnight at 4° C. After washing steps, neurons were incubated with secondary antibodies in 1% BSA in dark for 1 hour at room temperature. Samples were counterstained with 1 μg/ml 4,6-diamidino-2-phenylindole (DAPI) solution for nuclei visualization and then washed with PBS, followed by mounting and examined under a confocal microscope (Leica TCS SP8 high speed imaging system). To examine the neurite arborization and quantify the synaptic markers, primary neurons were stained with MAP2 (1:10,000; ab5392, Abcam) and Synapsin I (1:200; ab8, Abcam), Bassoon (1:200; ab110426, Abcam) or Homer1 (1:200; ab97593, Abcam) antibodies. The z stacked maximal projected images were used for statistical analyses using Photoshop 2020 (Adobe Systems). Ten EGFP-positive neurons per replica were used for the statistical analysis.
molecule,measurement,setting,value
"miR-10a-5p: miRNA (IDT), SEQ ID NO: 10, predicted to target TAB1 (UACCCUGUAGAUCCGAAUUUGUG; listed as RNA, chemistry not given here)",TAB1 expression,[1],able to silence
same,TAK1-triggered cell death,[1],inhibit
"miR-331-3p: miRNA (IDT), SEQ ID NO: 12, predicted to target TAB1 (GCCCCUGGGCCUAUCCUAGAA; listed as RNA, chemistry not given here)",TAB1 expression,[1],able to silence
same,TAK1-triggered cell death,[1],inhibit
"miR-504: miRNA targeting TAB1, expressed from construct pRI-CMV/GFP-miR-504 (mimic sequence SEQ ID NO: 3) (GACCCTGGTCTGCACTCTATC; listed as DNA, chemistry not fully specified)",mutant CAG RNA (EGFPCAG78)-induced cell death,[2],inhibited in a dose-dependent manner
same,caspase 3 cleavage,[3],rescued
same,"phosphorylation levels of TAK1, MKK4 and JNK",[3],rescued
same,"phosphorylation of TAK1 and JNK, and cleavage of caspase 3","[1]; EGFPCAG78-expressing cells, miRNA overexpression",suppressed
same,TAB1 expression,[1],most robust gene-silencing effects; also recorded: reduced
same,EGFP-Htt1-550CAG89-induced cell death,[4],rescued
COCCCOc1cc2c(cc1OC)-c1cc(=O)c(C(=O)O)cn1[C@H](C(C)C)C2 [RG7834],A-beta peptide toxicity (retinal degeneration),A-beta peptide toxicity,capable of suppressing
COc1cc(O)c2c(c1)/C=C/C[C@H](O)[C@H](O)C(=O)/C=C\C[C@H](C)OC2=O [5Z-7-oxozeaenol],mutant CAG RNA (EGFPCAG78)-induced cell death,[2],rescued
same,PAPD5-induced cell death,[5]; PAPD5 overexpression,suppressed
same,caspase 3 cleavage,[3],rescued
same,"phosphorylation levels of TAK1, MKK4 and JNK",[3],rescued
same,TAK1/MKK4/JNK phosphorylation,[6],dose-dependent decrease
same,caspase 3 cleavage,[6],dose-dependent decrease
same,"TAK1-MKK4-JNK pro-apoptotic signaling (phosphorylation of TAK1, MKK4, JNK, caspase 3 cleavage)",[1]; EGFPCAG78-expressing cells,suppressed
same,EGFP-Htt1-550CAG89-induced cell death,[4],rescued
CCOC(=O)c1cnc2ccc(OC(F)(F)F)cc2c1Nc1ccccc1C(=O)O [BCH001],A-beta peptide toxicity (retinal degeneration),A-beta peptide toxicity,capable of suppressing
same,mutant CAG RNA (EGFPCAG78)-induced cell death,[2],completely suppressed
same,IC50,"[2]; Homo sapiens, FIG. 11, read-out: IC50 of suppression of EGFPCAG78-induced cell death",14.7 nM
same,PAPD5-induced cell death,"[5]; 200 nM BCH001, FIG. 4A",sufficient to suppress
same,cell death induced by the compound,"[5]; 400 nM, FIG. 4A",does not induce cell death
same,PAPD5-induced cell death,[5]; PAPD5 overexpression,suppressed in a dose-dependent manner
same,caspase 3 cleavage,[3],suppressed
same,"phosphorylation levels of TAK1, MKK4 and JNK",[3],reduced
same,PAPD5 enzyme activity,PAPD5,specifically target
same,HttQ93-induced retinal neurodegeneration (rhabdomere numbers),[7],marked suppression
same,3' adenylation of telomerase RNA component (TERC),[8],reduced
same,TAK1/MKK4/JNK phosphorylation,[6],suppressed in a dose-dependent manner
same,caspase 3 cleavage,[6],suppressed in a dose-dependent manner
same,EGFP-Htt1-550CAG89-induced cell death,[4],rescued
same,JNK phosphorylation,[9],attenuated
same,caspase 3 cleavage,[9],attenuated
same,"neurites (primary, secondary, tertiary)",[10],recovered to their control levels
same,puncta number of Bassoon,[10],restoration
same,puncta number of Homer1,[10],restoration
same,puncta number of Synapsin I,[10],restoration
same,synaptic defects,[10],fully rescued
"miR-22-5p: miRNA (IDT), SEQ ID NO: 14, predicted to target TAB2 (AGUUCUUCAGUGGCAAGCUUUA; listed as RNA, chemistry not given here)",TAB2 expression,[1],capable of silencing
same,EGFPCAG78-induced TAK1 functional deregulation,[1],inhibiting
"miR-7-5p: miRNA (IDT), SEQ ID NO: 15, predicted to target TAB2",TAB2 expression,[1],capable of silencing
same,EGFPCAG78-induced TAK1 functional deregulation,[1],inhibiting
